Marks after values point to notes of the source that are not given here.
Key:
[1] = test system: IDDM of NOD mice; experiment: Insulin dependent diabetes mellitus (IDDM) of NOD mice; format: in vivo
[2] = test system: adjuvant arthritis in Lewis rats; experiment: Adjuvant arthritis (AA) in rats; format: in vivo
[3] = test system: mortality after gamma irradiation; experiment: Radioprotective effect in gamma-irradiated mice; format: in vivo, BALB/c mice
Description: Groups of female BALB/c mice, 8 weeks old, 5-10 mice per group, were injected subcutaneously with either saline (0.1 ml, control), H-9392 (30 ng/mouse), or glucosamine (10,000 ng/mouse) 1 day before irradiation, and weekly thereafter until termination of the experiment on day 30. All the mice were irradiated to a dose of 700 rads using a ^60Co gamma radiation source.
In a separate experiment, groups of BALB/c mice (5 mice to a group) were likewise exposed to 750 rads of gamma-rays, except that these groups of mice were treated with test substances (saline at 0.1 ml per mouse; H-9392 at 0.3, 3, 30 and 300 ng/mouse; and glucosamine at 1, 10 and 100 µg/mouse) on the day before irradiation, on the sixth day after irradiation, and once again on the thirteenth day after irradiation only. All treatment ceased after the third and last administration.

[4] = test system: experimental DTH reaction in mice; experiment: In vivo bioassay of inhibition of experimental DTH reactivity (oxazolone ear swelling); design: species or system mice (BALB/c or CD1); details: for DTH Response: at the dose giving Inhmax
Description: Groups of inbred BALB/c (Jackson Laboratories, Bar Harbor, ME) or of outbred CD1 (Weizmann Institute Animal Breeding Center, Rehovot, Israel) mice are sensitized on the shaved abdominal skin with 100 µl of 2% oxazolone (OX) in acetone/olive oil (4/1, v/v) applied topically. DTH sensitivity is elicited 5 days later as follows: mice are challenged with 20 µl of 0.5% OX (10 µl administered topically to each side of the ear) in acetone/olive oil. A constant area of the ear is measured immediately before challenge and 24 and 48 h later with a Mitutoyo engineer's micrometer. The individual measuring ear swelling is blinded to the identity of the groups of mice. The increment (△) of ear swelling is expressed as the mean in units of 10^-2 mm or 10^-4 inch (+SE) depending on the micrometer that is used. Percent inhibition is calculated as follows: %Inhibition= 1-((Treated-negative control)/(positive control-negative control)) [formula]
Mice are treated with LMWH as in Example 5.1, injected the day before primary sensitization to OX. On the fifth day after sensitization to OX, the mice are challenged to induce a DTH reaction, as described above.
The positive control is the DTH reaction elicited in immunized mice in the absence of treatment with LMWH. The negative control is the background swelling produced by the antigen in naive (non-immunized) mice.
BALB/c mice (at least 5 mice per group) were sensitized on the shaved abdomen with 3% 4-ethoxymethylene-2-phenyl oxazolone (OX; BDH Chemicals, GB) in acetone/olive oil applied topically. DTH sensitivity was elicited 5 days later as follows. Mice were challenged with 0.5% OX in acetone/olive oil. The ear was measured immediately before challenge and 24 h later with Mitutoyo engineer's micrometer (Japan). The individual measuring the swelling of the ear was blinded to the identity of the groups of mice. To interfere with DTH response, the low molecular weight immuno-regulatory fractions, diluted in PBS, were administrated subcutaneously into the back of the treated mice at the indicated time schedules and concentrations. Treated mice were inspected during and after (>2 months) the treatment and no major side-effects were observed clinically.
In particular, CD1 mice (available from the Weizmann Institute Animal Breeding Center, Rehovot, Israel), 4-12 mice per group, were treated as described in Section 5.2 or 6.8.

[5] = test system: experimental DTH reaction in mice; experiment: as above; design: species or system mice (BALB/c or CD1); details: inhibitory; administered orally
[6] = test system: secretion of active TNF-α by activated human CD4+ T cells; experiment: Bioassay of TNF-α activity using human CD4+ T cells derived from PBLs (human PBL bioassay); details: concentration that gave the Inhmax or Augmax of the same line
[7] = test system: LPS-induced inflammation of the cornea; experiment: LPS-induced inflammation of the rat cornea; format: in vivo, Lewis rats
Description: LPS-induced inflammation of the cornea is TNF dependent, as shown by the work of Vanderhagen, C. and co-workers in the Netherlands, "Kinetics of Intraocular TNF and IL-6 in Endotoxin-Induced Uveitis in the Rat," submitted for publication. Using a 30-gauge needle, LPS (5 ng) was injected into the cornea of Lewis rats. After one day, separate groups of rats, 2 to a group (or 4 eyes to a group), were then injected subcutaneously with phosphate-buffered saline (0.05 ml) or H-1020 (at a dose of either 50 ng/rat or 200 ng/rat). The effects, if any, were scored as follows:
in which the sum of the points is used as the total score.

[8] = test system: ELAM-1; experiment: TNF-α-induced expression of adhesion molecules by endothelial cells (ELISA); details: for Recombinant human TNFα-induced adhesion molecules (O.D 492): 1 h pretreatment of EC, TNFα alone 1.2±0.1
[9] = test system: ICAM-1; experiment: as above; details: 1 h pretreatment of EC, TNFα alone 2.2±0.2
[10] = CD1 mice, s.c., higher effective dose range
[11] = CD1 mice, s.c., inhibitory, 0 = no effect

Structure (SMILES): N[C@H]1C(O)O[C@H](CO)[C@@H](O)[C@@H]1O (stereo partly drawn) [GlcN, 2-amino-2-deoxy-D-glucose]
- mice that had become diabetic ([1]; at 4.5 months, H-9392 30 ng/mouse, glucosamine 10,000 ng/mouse s.c., all control mice diabetic): about 65%
- mice that had died, in words ([1]; by age 5 months, H-9392 30 ng, glucosamine 10,000 ng, all control mice had died): about half
- inhibition of the development of AA, of control levels ([2]; s.c. weekly, three dosage levels): 60-80%
- mortality rate ([3]; 700 rads, by day 30, s.c. 1 day before irradiation and weekly, H-9392 30 ng/mouse, glucosamine 10,000 ng/mouse, saline 100%): 20%
- activity in suppressing mortality after irradiation, in words ([3]; 750 rads, three administrations, 300 ng H-9392, 1 µg glucosamine): moderate activity in suppressing mortality
- Inhmax ([4]; CD1 mice, s.c.): 75%
- Dose ([4]; CD1 mice, s.c., dose giving Inhmax in the higher effective dose range): 0.4 µg/gm
- "R" value [4, 10]: 2.2 x 10^2 % x (µg/gm)^-1
- Inhmax [4, 10]: 88%
- "R" value [4, 11]: 6.25 x 10^6 % x (μg/gm)^-1

Structure (SMILES): O=C(O)C1=C[C@H](O)[C@@H](O)[C@H](O[C@H]2[C@H](O)[C@@H](NS(=O)(=O)O)C(O)O[C@@H]2COS(=O)(=O)O)O1 (stereo partly drawn) [H-1020, 4-deoxy-4-en-iduronic acid-(α-1,4)-2-deoxy-2-N-sulfate-6-O-sulfateglucosamine]
- "R" value [5]: 531 % x (µg/gm)^-1
- inhibition of the development of AA relative to control ([2]; s.c. weekly from 1 day before induction, day 24, dose not given): about 30%
- conc [6]: 1 pg/mL
- effect on the LPS-induced inflammation score, in words ([7]; 50 ng/rat s.c. one day after LPS): effective to suppress the effects of the local LPS-induced inflammation
- effect on the LPS-induced inflammation score, in words ([7]; 200 ng/rat s.c. one day after LPS): failed to provide a significant effect
- Recombinant human TNFα-induced adhesion molecules (O.D 492) ([8]; 50 pg/ml, no TNFα 0.12±0.01): 0.7±0.05 O.D 492
- Recombinant human TNFα-induced adhesion molecules (O.D 492) ([8]; 100 pg/ml): 0.9±0.03 O.D 492
- inhibition of the up regulation of EC expression of adhesion molecules induced by TNF-α ([8]; ELAM-1 and ICAM-1 not told apart in the sentence): up to 50%
- Inhmax ([4]; CD1 mice, s.c.): 66%
- DTH ([4]; CD1 mice, s.c., at that dose, value in parentheses in the cell taken as positive control, not reported): 6.7 ± 1.1 (19.6 ± 1.2) 10^-2 mm
- "R" value [4, 11]: 1.65 x 10^5 % x (μg/gm)^-1
- DTH Response ([4]; administered orally): 5.9 ± 0.9 10^-2mm
- DTH Response ([4]; subcutaneous): 4.7 ± 0.7 10^-2mm
- Dose ([4]; dose giving Inhmax, administered orally): 0.128^a µg/gm mouse
- Dose ([4]; dose giving Inhmax, subcutaneous): 0.0005 µg/gm mouse
- "R" value ([4]; inhibitory, maximum % inhibition of DTH divided by the dose giving it, s.c., 0 = no effect): 146,000 % x (µg/gm)^-1
- Inhmax ([4]; maximum inhibition of DTH, administered orally): 68%
- Inhmax ([4]; maximum inhibition of DTH, subcutaneous): 73%
- Recombinant human TNFα-induced adhesion molecules (O.D 492) ([9]; 50 pg/ml, no TNFα 0.18±0.01): 1.2±0.1 O.D 492
- Recombinant human TNFα-induced adhesion molecules (O.D 492) ([9]; 100 pg/ml): 1.5±0.07 O.D 492
